In patent US20150119398A1, “FORM 2 POLYMORPH OF 7-(TERT-BUTYL-D9)-3-(2,5-DIFLUOROPHENYL)-6-((1-METHYL-1H-1,2,4-TRIAZOL-5-YL)METHOXY)-[1,2,4]TRIAZOLO[4,3-B]PYRIDAZINE” (Concert Pharmaceuticals Inc., priority 2012, published 2015):

How the values were obtained:
[1] = Dynamic Vapor Sorption (DVS) analysis; assay type: physicochemical; details: between 0-90% relative humidity, 25° C.
Procedure: Dynamic Vapor Sorption (DVS). DVS experiments were conducted on a Surface Measurement Systems DVS-HT at 25° C. The instrument was operated in step mode and the relative humidity was increased in 10% RH increments from 40% RH to 90% RH, then decreased from 90% RH to 0% RH, then increased from 0% RH to 90% RH, then decreased from 90% RH to 0% RH. An extra step at 75% RH was included in each cycle. The mass equilibrium criterion was set at 0.005% change in mass over time (dm/dt) prior to each humidity level. A minimum step time of 10 minutes and a maximum step time of 240 minutes were specified.

[2] = Physical stability of the crystal form on exposure to ambient conditions or elevated humidity; assay type: physicochemical

weight gain by DVS [1]: up to 2.5 % wt
physical stability at elevated humidity (75% or 95% RH) ([2]; 75% or 95% RH, 5 days): physically stable
physical stability at 75-97% relative humidity ([2]; 75-97% relative humidity, five days): physically stable
physical stability at ambient conditions ([2]; ambient conditions, at least two weeks): physically stable
Structure (SMILES): [2H]C([2H])([2H])C(c1cc2nnc(-c3cc(F)ccc3F)n2nc1OCc1ncnn1C)(C([2H])([2H])[2H])C([2H])([2H])[2H] [Form 2, 7-(tert-Butyl-d9)-3-(2,5-difluorophenyl)-6-((1-methyl-1H-1,2,4-triazol-5-yl)methoxy)-[1,2,4]triazolo[4,3-b]pyridazine]
